# Reference: US10179125B2, “Substituted pyridines as bromodomain inhibitors” (Zenith Epigenetics Ltd., priority 2014, dated 2019)
# Legend:
# [1] = molecular target: T1, Brd4 bromodomain 1 (BRD4(1)) (Homo sapiens, UniProt O60885); experiment: Inhibition of tetra-acetylated histone H4 binding to BET bromodomain (HTRF/FRET); details: His-tagged bromodomain 200 nM, biotinylated tetra-acetylated histone H4 peptide, 2 h room temperature
# T1 construct: made in house; host or cells: E. coli BL21(DE3)
# Method: Proteins were cloned and overexpressed with a N-terminal 6×His tag, then purified by nickel affinity followed by size exclusion chromatography. Briefly, E. coli BL21(DE3) cells were transformed with a recombinant expression vector encoding N-terminally Nickel affinity tagged bromodomains from Brd2, Brd3, Brd4. Cell cultures were incubated at 37° C. with shaking to the appropriate density and induced overnight with IPTG. The supernatant of lysed cells was loaded onto Ni-IDA column for purification, Eluted protein was pooled, concentrated and further purified by size exclusion chromatography. Fractions representing monomeric protein were pooled, concentrated, aliquoted, and frozen at −80° C. for use in subsequent experiments.
# Binding of tetra-acetylated histone H4 and BET bromodomains was confirmed by a Homogenous Time Resolved Fluorescence Resonance Energy Transfer (HTRF®) method, N-terminally His-tagged bromodomains (200 nM) and biotinylated tetra-acetylated histone H4 peptide (25-50 nM, Millipore) were incubated in the presence of Europium Cryptate-labeled streptavidin (Cisbio Cat, #610SAKLB) and XL665-labeled monoclonal anti-His antibody (Cisbio Cat.1461HISXLB) in a white 96 well microtiter plate (Greiner). For inhibition assays, serially diluted test compound was added to these reactions in a 0.2% final concentration of DMSO. Duplicate wells were used for each concentration tested. Final buffer concentrations were 30 mM HEPES pH 7.4, 30 mM NaCl, 0.3 mM CHAPS, 20 mM phosphate pH 7.0, 320 mM KF, 0.08% BSA. After a 2 h incubation at room temperature, fluorescence was measured at 665 and 620 nm with a SynergyH4 plate reader (Biotek). The binding inhibitory activity was shown by a decrease in […] relative to 620 nm fluorescence. IC50 values were determined from a dose response curve.
# cMYC = experiment: Inhibition of cMYC expression in MV4-11 cells (real-time PCR); format: cell-based, Human; details: Homo sapiens, 3 h, cMYC mRNA, read-out: c-myc activity
# Method: MV4-11 cells (CRL-9591) were plated at a density of 2.5×10^4 cells per well in 96 well U-bottom plates and treated with increasing concentrations of test compound or DMSO (0.1%) in IMDM media containing 10% FBS and penicillin/streptomycin, and incubated for 3 h at 37° C. Triplicate wells were used for each concentration. Cells were pelleted by centrifugation and harvested using the mRNA Catcher PLUS kit according to manufacturer's instructions. The eluted mRNA isolated was then used in a one-step quantitative real-time PCR reaction, using components of the RNA UltraSense™ One-Step Kit (Life Technologies) together with Applied Biosystems TaqMan® primer-probes for cMYC and Cyclophilin, Real-time PCR plates were run on a ViiA™7 real time PCR machine (Applied Biosystems), data was analyzed, normalizing the Ct values for cMYC to an internal control, prior to determining the fold expression of each sample, relative to the control.
# Human AML MV-4-11 cells = experiment: Inhibition of cell proliferation in MV4-11 cells (CellTiter Aqueous One); format: cell-based; details: 72 h; for IC50: Homo sapiens
# Method: MV4-11 cells (CRL-9591) were plated at a density of 5×10^4 cells per well in 96 well flat bottom plates and treated with increasing concentrations of test compound or DMSO (0.1%) in IMDM media containing 10% FBS and penicillin/streptomycin. Triplicate wells were used for each concentration and a well containing only media was used as a control. Plates were incubated at 37° C., 5% CO2 for 72 h before adding 20 μL of the CellTiter Aqueous One Solution (Promega) to each well and incubated at 37° C., 5% CO2 for an additional 3-4 h. The absorbance was read at 490 nm in a spectrophotometer and the percentage of cell titer relative to DMSO-treated cells was calculated after correcting for background by subtracting the blank well's signal. IC50 values were calculated using the GraphPad Prism software.
# hIL-6 = experiment: Inhibition of hIL-6 mRNA transcription in LPS-stimulated U937 cells; format: cell-based, Human; details: Homo sapiens, U-937, PMA-differentiated U937 cells, 1 h pretreatment, LPS 3 h, read-out: IL-6 activity
# Method: Human leukemic monocyte lymphoma U937 cells (CRL-1593.2) were plated at a density of 3.2×10^4 cells per well in a 96-well plate in 100 μL RPMI-1640 containing 10% FBS and penicillin/streptomycin, and differentiated into macrophages for 3 days in 60 ng/mL PMA ([…]) at 37° C. in 5% CO2 prior to the addition of compound. The cells were pretreated for 1 h with increasing concentrations of test compound in 0.1% DMSO prior to stimulation with 1 ug/mL lipopolysaccharide from Escherichia coli. Triplicate wells were used for each concentration. The cells were incubated at 37° C., 5% CO2 for 3 h before the cells were harvested. At time of harvest, media was removed and cells were rinsed in 200 μL PBS. Cells were harvested using the mRNA Catcher PLUS kit according to manufacturer's instructions. The eluted mRNA was then used in a one-step quantitative real-time PCR reaction using components of the RNA UltraSense™ One-Step Kit (Life Technologies) together with Applied Biosystems TaqMan® primer-probes for hIL-6 and Cyclophilin. Real-time PCR plates were run on a ViiA™7 real time PCR machine (Applied Biosystems), data was analyzed, normalizing the Ct values for hIL-6 to an internal control, prior to determining the fold expression of each sample, relative to the control.
Structure (SMILES),IC50 [1] [µM],IC50 (cMYC) [µM],IC50 (Human AML MV-4-11 cells) [µM],IC50 (hIL-6) [µM],Cell Proliferation activity (Human AML MV-4-11 cells)
"COc1ncc(-c2c(C)noc2C)cc1Nc1cccc(F)c1 [Example 3, 5-(3,5-dimethylisoxazol-4-yl)-N-(3-fluorophenyl)-2-methoxypyridin-3-amine]",≤ 0.3,0.3 to 3,3 to 30,0.3 to 3,–
"COc1ncc(-c2c(C)noc2C)cc1Oc1ccccc1 [Example 4, 4-(6-methoxy-5-phenoxypyridin-3-yl)-3,5-dimethylisoxazole]",0.3 to 3,0.3 to 3,3 to 30,0.3 to 3,–
"COc1ncc(-c2c(C)noc2C)cc1NC(C)c1ccccc1 (centres unmarked) [Example 5, 5-(3,5-dimethylisoxazol-4-yl)-2-methoxy-N-(1-phenylethyl)pyridin-3-amine]",0.3 to 3,0.3 to 3,0.3 to 3,0.3 to 3,–
"COc1ncc(-c2c(C)noc2C)cc1Nc1cccc(C)c1 [Example 7, 5-(3,5-dimethylisoxazol-4-yl)-2-methoxy-N-(m-tolyl)pyridin-3-amine]",≤ 0.3,–,3 to 30,0.3 to 3,–
"COc1ncc(-c2c(C)noc2C)cc1NCc1ccc(Cl)s1 [Example 8, N-((5-chlorothiophen-2-yl)methyl)-5-(3,5-dimethylisoxazol-4-yl)-2-methoxypyridin-3-amine]",≤ 0.3,3 to 30,3 to 30,0.3 to 3,–
"COc1ncc(-c2c(C)noc2C)cc1NC(C)c1ccc(F)cc1 (centres unmarked) [Example 12, 5-(3,5-dimethylisoxazol-4-yl)-N-(1-(4-fluorophenyl)ethyl)-2-methoxypyridin-3-amine]",≤ 0.3,0.3 to 3,0.3 to 3,0.3 to 3,–
"COc1cccc(Nc2cc(-c3c(C)noc3C)cnc2OC)c1 [Example 13, 5-(3,5-dimethylisoxazol-4-yl)-2-methoxy-N-(3-methoxyphenyl)pyridin-3-amine]",≤ 0.3,–,0.3 to 3,0.3 to 3,–
"COc1ncc(-c2c(C)noc2C)cc1Oc1cccnc1 [Example 15, 4-(6-methoxy-5-(pyridin-3-yloxy)pyridin-3-yl)-3,5-dimethylisoxazole]",3 to 30,–,–,–,–
"COc1ncc(-c2c(C)noc2C)cc1NCc1ccc(C(F)(F)F)cc1 [Example 16, 5-(3,5-dimethylisoxazol-4-yl)-2-methoxy-N-(4-(trifluoromethyl)benzyl)pyridin-3-amine]",0.3 to 3,–,–,–,–
"COc1ncc(-c2c(C)noc2C)cc1NCc1ccncc1 [Example 17, 5-(3,5-dimethylisoxazol-4-yl)-2-methoxy-N-(pyridin-4-ylmethyl)pyridin-3-amine]",0.3 to 3,3 to 30,3 to 30,0.3 to 3,–
"COc1ncc(-c2c(C)noc2C)cc1Nc1ccccc1F [Example 18, 5-(3,5-dimethylisoxazol-4-yl)-N-(2-fluorophenyl)-2-methoxypyridin-3-amine]",≤ 0.3,3 to 30,3 to 30,0.3 to 3,–
"COc1ncc(-c2c(C)noc2C)cc1Nc1ccc(F)cc1 [Example 19, 5-(3,5-dimethylisoxazol-4-yl)-N-(4-fluorophenyl)-2-methoxypyridin-3-amine]",≤ 0.3,0.3 to 3,0.3 to 3,0.3 to 3,–
"COc1ncc(-c2c(C)noc2C)cc1NCc1cc(C)sc1C [Example 20, 5-(3,5-dimethylisoxazol-4-yl)-N-((2,5-dimethylthiophen-3-yl)methyl)-2-methoxypyridin-3-amine]",≤ 0.3,3 to 30,3 to 30,0.3 to 3,–
"COc1ncc(-c2c(C)noc2C)cc1NCc1ccccn1 [Example 21, 5-(3,5-dimethylisoxazol-4-yl)-2-methoxy-N-(pyridin-2-ylmethyl)pyridin-3-amine]",≤ 0.3,0.3 to 3,0.3 to 3,0.3 to 3,–
"COc1ncc(-c2c(C)noc2C)cc1NC(C)c1ccc(Cl)cc1 (centres unmarked) [Example 22, N-(1-(4-chlorophenyl)ethyl)-5-(3,5-dimethylisoxazol-4-yl)-2-methoxypyridin-3-amine]",0.3 to 3,3 to 30,3 to 30,–,–
"COc1ncc(-c2c(C)noc2C)cc1NCc1ccc(Br)cc1 [Example 23, N-(4-bromobenzyl)-5-(3,5-dimethylisoxazol-4-yl)-2-methoxypyridin-3-amine]",0.3 to 3,3 to 30,3 to 30,–,–
"COc1ncc(-c2c(C)noc2C)cc1NC(C)c1ccccn1 (centres unmarked) [Example 24, 5-(3,5-dimethylisoxazol-4-yl)-2-methoxy-N-(1-(pyridin-2-yl)ethyl)pyridin-3-amine]",≤ 0.3,0.3 to 3,0.3 to 3,0.3 to 3,–
"Cc1noc(C)c1-c1cnc(OCc2ccccc2)c(NCc2ccccc2)c1 [Example 25, N-benzyl-2-(benzyloxy)-5-(3,5-dimethylisoxazol-4-yl)pyridin-3-amine]",0.3 to 3,–,3 to 30,–,–
"COc1ncc(-c2c(C)noc2C)cc1NCCc1ccccc1 [Example 26, 5-(3,5-dimethylisoxazol-4-yl)-2-methoxy-N-phenethylpyridin-3-amine]",0.3 to 3,3 to 30,3 to 30,3 to 30,–
"Cc1noc(C)c1-c1cnc(OC(C)C)c(NCc2ccccc2)c1 [Example 27, N-benzyl-5-(3,5-dimethylisoxazol-4-yl)-2-isopropoxypyridin-3-amine]",≤ 0.3,3 to 30,3 to 30,0.3 to 3,–
"COc1ncc(-c2c(C)noc2C)cc1-c1c(C)noc1C [Example 34, 4,4′-(2-methoxypyridine-3,5-diyl)bis(3,5-dimethylisoxazole)]",≤ 0.3,3 to 30,–,3 to 30,–
"COc1ncc(-c2c(C)noc2C)cc1NCc1ncccn1 [Example 48, 5-(3,5-dimethylisoxazol-4-yl)-2-methoxy-N-(pyrimidin-2-ylmethyl)pyridin-3-amine]",≤ 0.3,–,3 to 30,0.3 to 3,–
"COc1ncc(-c2c(C)noc2C)cc1NCc1ncccc1Cl [Example 49, N-((3-chloropyridin-2-yl)methyl)-5-(3,5-dimethylisoxazol-4-yl)-2-methoxypyridin-3-amine]",≤ 0.3,–,–,–,Not Active
"CNc1ncc(-c2c(C)noc2C)cc1Nc1cccnc1C [Example 69, 5-(3,5-Dimethylisoxazol-4-yl)-N2-methyl-N3-(2-methylpyridin-3-yl)pyridine-2,3-diamine]",0.3 to 3,–,–,–,–
